Assay results: patent publication US20050053580A1, “Use of microbiology non-viral substances for treating acne” (priority 2001, published 2005)

How the values were obtained:
[1] = tested on: androgen receptor; assay: Androgen receptor expression by immunoblotting in SZ95 sebocytes; assay type: cell-based, human; settings: for inhibition of the androgen receptor expression compared to native SZ95 sebocytes: 1.0 μM, after 14 h; for protein expression of the androgen receptor: 0.4 and 1.0 μM, after 24 hours
[2] = tested on: SZ95 sebocytes; assay: SZ95 sebocyte proliferation, crystal violet assay; assay type: cell-based, human; settings: for inhibition of the testosterone-induced stimulation of the SZ95 sebocyte proliferation: 10^−7 M testosterone, stimulation period 44 hours; for increase in proliferation: after 72 h, native SZ95 sebocytes
[3] = 1 μM oligonucleotide, 4 h transfection, 14 h recovery

| Molecule | inhibition of the androgen receptor expression compared to native SZ95 sebocytes [1] [%] | protein expression of the androgen receptor [1] | inhibition of the testosterone-induced stimulation of the SZ95 sebocyte proliferation [2, 3] | also measured |
| --- | --- | --- | --- | --- |
| 5′-CTGCACTTCCATCCTTGAGCTTGGC-3′ [Thioate antisense oligonucleotide] | 39 | reduced protein expression | inhibited | proliferation pattern in the presence of testosterone [2, 3]: same proliferation pattern as native cells |
| 5′-CTGCCCTTCAATCCCTGAGTTTGGC-3′ (DNA CTGCCCTTCAATCCCTGAGTTTGGC; listed as DNA, chemistry not given here) [mismatch-oligonucleotide, mismatch control oligonucleotide to safeguard antisense specificity, reference compound] | – | – | – | protein expression of the androgen receptor versus non-transfected cells ([1]; four hours' transfection with DOTAP, recovery phase of at least 24 hours, Western blot): comparable |
| 5′-GCCAAGCUCAAGGAUGGAAGUGCAG-3′ (antisense GCCAAGCUCAAGGAUGGAAGUGCAG; 2'-O-methylribose, further chemistry not given here) [methylribosyl antisense oligonucleotide against the androgen receptor] | 87 | reduced protein expression | highly significant | – |
| C[C@]12CCC(=O)C[C@@H]1CC[C@@H]1[C@@H]2CC[C@]2(C)[C@@H](O)CC[C@@H]12 [DHT, 5α-dihydrotestosterone, reference compound] | – | – | – | increase in proliferation ([2]; 10^−7-10^−6 DHT): significant |
| C[C@]12CC[C@H]3[C@@H](CCC4=CC(=O)CC[C@@]43C)[C@@H]1CC[C@@H]2O [testosterone, reference compound] | – | – | – | increase in proliferation ([2]; 10^−7 and 5×10^−7 M testosterone): significant |
